Results reported in PubChem BioAssay (NCI).
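Grown in 96-well plates, cells were treated for 48 hours with each compound at five concentrations. Insufficient inhibition: endpoint recorded as highest concentration tested. GI50: concentration for 50% inhibition of growth. TGI: concentration producing complete growth inhibition.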

How the values were obtained:
Assay in all cases: NCI tumour cell line growth inhibition, 48 h
[1] = test system: HS 578T breast
[2] = test system: MDA-N
[3] = test system: NCI-H23 lung
[4] = test system: NCI-H460 lung
[5] = test system: OVCAR-5 ovarian
[6] = test system: RPMI-8226 leukemia
[7] = test system: SK-MEL-5 melanoma
[8] = test system: SK-OV-3 ovarian
[9] = test system: SR leukemia
[10] = test system: A498 renal

Structure (SMILES)	TGI [1] [µM]	TGI [2] [µM]	TGI [3] [µM]	TGI [4] [µM]	TGI [5] [µM]	TGI [6] [µM]	TGI [7] [µM]	TGI [8] [µM]	TGI [9] [µM]	TGI [10] [µM]	GI50 [10] [µM]	GI50 [1] [µM]	GI50 [3] [µM]	GI50 [4] [µM]	GI50 [5] [µM]	GI50 [6] [µM]	GI50 [7] [µM]	GI50 [9] [µM]	GI50 [8] [µM]
NC(=O)c1c(NC=O)ncn1C1OCC(O)C(O)C1O (stereo unspecified)	> 100	> 100	> 100	> 100	> 100	> 100	> 100	> 100	> 100	–	–	–	–	–	–	–	–	–	–
O=C(Nc1nnc(-c2c(Cl)c(Cl)c(Cl)c(Cl)c2-c2nc3cc(C(=O)c4ccccc4)ccc3[nH]2)o1)c1ccc(Cl)cc1	–	54.2	> 100	–	> 100	> 100	39.9	> 100	> 100	43.4	–	–	–	–	–	–	–	–	–
COc1nc2c(c(=O)n1C)N=C(c1ccc(Cl)cc1)CC(c1ccccc1)N2 (stereo unspecified)	–	37.8	69.1	28.1	78.7	54	38.2	> 100	> 100	> 100	–	–	–	–	–	–	–	–	–
COc1cc(C2c3cc4c(cc3[C@@H](Oc3ccc(F)cc3)C3COC(=O)[C@H]23)OCO4)cc(OC)c1O (stereo partly specified)	–	–	> 100	25.4	> 100	6.64	10.9	–	–	–	–	–	–	–	–	–	–	–	–
S=C(N1CCN(c2cccc(Cl)c2)CC1)N1CCN(c2cccc(Cl)c2)CC1	66.6	> 100	> 100	–	> 100	> 100	> 100	> 100	32.4	–	–	–	–	–	–	–	–	–	–
O=C(NCCNc1nccc(-c2c(-c3cccc(O)c3)nc3sccn23)n1)c1ccccc1	38.3	–	30.7	27.5	61.8	25.3	17.5	–	50	19.3	3.68	4.86	10	10.4	18.3	6.97	4.15	5.68	–
COc1ccc2c3c([nH]c2c1)CCN(Cc1ccccc1)C3	56.9	–	> 100	37.7	69	64.6	32.6	> 100	40.3	46.5	–	–	–	–	–	–	–	–	–
N#Cc1c(-c2ccc(Cl)cc2)c2c(N=Nc3c(O)ccc4ccccc34)[nH]nc2[nH]c1=O	3.96	2.08	–	0.851	2.73	–	1.62	1.58	–	0.468	–	–	–	–	–	–	–	–	–
CCn1c2ccccc2c2ccc(C3C(C(=O)OC)=C(C)NC(C)=C3C(=O)OC)cc21	–	> 100	> 100	> 100	> 100	80.8	> 100	> 100	> 100	46	–	–	–	–	–	–	–	–	–
Cc1ccc2[nH]c3[nH]c(=S)[nH]c(=O)c3c2c1	> 100	> 100	> 100	–	> 100	> 100	> 100	> 100	> 100	> 100	–	–	–	–	–	–	–	–	–
CCOC(=O)Cc1cnc(NC(NC(=O)CC)(C(F)(F)F)C(F)(F)F)s1	> 100	> 100	> 100	> 100	> 100	> 100	–	> 100	> 100	> 100	–	–	–	–	–	–	–	–	–
O=C1CSC2=NC3=C(CSC/C3=C\c3ccccc3)C(c3ccccc3)N12 (stereo unspecified)	> 100	> 100	> 100	> 100	> 100	> 100	> 100	> 100	> 100	–	–	–	–	–	–	–	–	–	–
CNC(=O)OC(COC)CN1CCN(c2ccccc2C)CC1 (stereo unspecified)	> 10	–	> 10	> 10	–	> 10	> 10	> 10	> 10	> 10	–	–	–	–	–	–	–	–	–
ClCc1cccc(CSc2ncnc3c2ncn3Cc2cccc(CCl)c2)c1	> 100	–	3.88	4.76	3.99	4.86	2.9	4.97	9.89	23.6	11.1	5.39	1.75	2.04	1.84	1.89	1.56	2.82	2.3
CC(=O)C(=[N+]=[N-])C(=O)N(C)CCC#N	–	> 10	> 10	> 10	> 10	> 10	–	> 10	> 10	> 10	–	–	–	–	–	–	–	–	–
COC(=O)[C@@H]1CC(C(CN)c2cn(C(=O)OC(C)(C)C)c3ccccc23)C(=O)N1C(=O)OC(C)(C)C (stereo partly specified)	> 100	69.6	> 100	56	84.2	24.1	31.6	–	43.3	37.3	–	–	–	–	–	–	–	–	–
COc1cc2ccc1OCc1cccc(n1)COc1ccc(cc1OC)C=NCCNCCNCCN=C2	> 100	> 100	> 100	> 100	> 100	–	> 100	> 100	> 100	> 100	–	–	–	–	–	–	–	–	–
CN1C(=O)CC2CCC(=O)N2c2cccnc21 (stereo unspecified)	> 100	> 100	> 100	> 100	–	> 100	> 100	–	> 100	–	–	–	–	–	–	–	–	–	–
O=S(=O)(O)c1ccc2c(N=Nc3ccc(Cl)cc3)c(O)ccc2c1	> 100	> 100	> 100	–	> 100	> 100	> 100	> 100	–	> 100	–	–	–	–	–	–	–	–	–
CC1(C)OC[C@@H](O)[C@H](Br)CO1	> 100	> 100	> 100	> 100	> 100	> 100	–	> 100	> 100	> 100	–	–	–	–	–	–	–	–	–
CC(C)(C)OC(=O)Cn1ncn(NC(=O)Cc2ccccc2)c1=O	> 10	> 10	> 10	> 10	> 10	–	> 10	> 10	> 10	> 10	–	–	–	–	–	–	–	–	–
O=C(OC/C=C1C=C(OC(=O)c2ccccc2)/C(=N/N(C(=O)c2ccccc2)c2ccccc2)O\1)c1ccccc1	–	–	–	20	29.5	7.24	35.5	23.6	–	25.6	–	–	–	–	15.9	–	19	–	–
NC1Cc2ccccc2OC1=O (stereo unspecified)	> 100	–	> 100	> 100	> 100	> 100	> 100	> 100	> 100	–	–	–	–	–	–	–	–	–	–
COc1ccc(C2C3CCCC(C3=O)C(c3ccc(OC)cc3)N2N=O)cc1 (stereo unspecified)	–	–	44.5	42.2	> 100	47.8	32.4	> 87.6	–	25.4	–	–	–	–	–	–	–	–	–

Structure (SMILES)	TGI [1] [µM]	TGI [2] [µM]	TGI [3] [µM]	TGI [4] [µM]	TGI [5] [µM]	TGI [6] [µM]	TGI [7] [µM]	TGI [8] [µM]	TGI [9] [µM]	TGI [10] [µM]	GI50 [10] [µM]	GI50 [1] [µM]	GI50 [3] [µM]	GI50 [4] [µM]	GI50 [5] [µM]	GI50 [6] [µM]	GI50 [7] [µM]	GI50 [9] [µM]	GI50 [8] [µM]
COc1ccccc1NCc1cccc2c(=O)c3ccc(Cl)cc3oc12	–	> 100	> 100	–	> 100	> 100	> 100	> 100	> 100	> 100	–	–	–	–	–	–	–	–	–
C[N+]1(CCC[N+]2(C)CC3C4C=CC(CC4)C3C2)CCOCC1 (stereo unspecified)	> 100	> 100	> 100	–	> 100	> 100	> 100	> 100	> 100	> 100	–	–	–	–	–	–	–	–	–
O=C(Nc1sccc1S(=O)(=O)c1ccccc1)c1ccccc1	> 100	> 100	> 100	> 31.6	> 100	> 100	> 100	> 100	–	> 100	–	–	–	–	–	–	–	–	–
OC12c3ccccc3C3CCC4(OCCO4)C3C1c1ccccc12 (stereo unspecified)	–	–	> 100	> 100	> 100	> 100	> 100	> 100	–	> 100	–	–	–	–	–	–	–	–	–
C=CCN(c1cc(OC)c2[nH]c(C(=O)OCC)c(C)c2c1[N+](=O)[O-])S(C)(=O)=O	58.7	52.7	> 100	> 100	99.1	32.8	44.8	> 100	–	65.6	–	–	–	–	–	–	–	–	–
Cc1cc(O)c(/C=N/C(=S)Nc2ccccc2)c(=O)o1	> 100	> 100	> 100	> 100	> 100	> 100	> 100	> 100	–	> 100	–	–	–	–	–	–	–	–	–
COc1ccc2[nH]c3c(C)cc([N+](=O)[O-])c(C)c3c2c1	–	–	> 100	39.7	–	62.7	88.4	78.3	58.5	59.6	–	–	–	–	–	–	–	–	–
C=CCCCCOC1C=CC(O)C(CO)O1 (stereo unspecified)	> 100	> 100	> 100	> 100	> 100	> 100	> 100	> 100	–	> 100	–	–	–	–	–	–	–	–	–
CC1(C)CCCCCC(C)(CCCO)C1=O (stereo unspecified)	> 100	–	> 100	> 100	> 100	> 100	> 100	> 100	> 100	> 100	–	–	–	–	–	–	–	–	–
CCOC(=O)c1c(N2CCCC2)ncn(C)c1=S	> 100	–	> 100	> 100	> 100	> 100	> 100	–	> 100	> 100	–	–	–	–	–	–	–	–	–
COc1cccc2cc(C(C)=O)c(=O)oc12	> 100	> 100	> 100	> 100	> 100	> 100	> 100	–	> 100	> 100	–	–	–	–	–	–	–	–	–
O=C(NNS(=O)(=O)c1ccccc1)c1cccnc1	> 100	> 100	> 100	> 100	> 100	> 100	> 100	> 100	–	> 100	–	–	–	–	–	–	–	–	–
Cc1ccc(O)c(C2=CC(c3cccc(Br)c3)SC(N)=N2)c1 (stereo unspecified)	45	50.1	76.3	49.8	92.5	49.8	32	75.6	49.7	–	–	–	–	–	–	–	–	–	–
CCCC1(CCC)c2cc(/C=N\O)ccc2-c2ccc(-c3ccc(C(C)(C)C)cc3)cc21	> 100	> 100	> 100	> 100	> 100	> 100	> 100	> 100	73.1	–	–	–	–	–	–	–	–	–	–
O=C(Nc1cccc2ccccc12)c1ccccc1	> 100	> 100	> 100	> 100	> 100	–	> 100	> 100	–	> 100	–	–	–	–	–	–	–	–	–
CCn1c(=O)c2nc(SC)sc2n(-c2ccccc2)c1=O	–	> 100	> 100	> 100	> 100	> 100	> 100	> 100	> 100	–	–	–	–	–	–	–	–	–	–
Cc1cccc(C)c1Nc1nc(C)c(C(=O)CC(=O)C(=O)Nc2c(C(C)C)cccc2C(C)C)s1	> 100	> 100	> 100	> 100	> 100	> 100	> 100	> 100	> 100	–	–	–	–	–	–	–	–	–	–
N#CCN(CC#N)C1CC=CCC1N(CC#N)CC#N (stereo unspecified)	> 100	> 100	> 100	> 100	> 100	> 100	> 100	> 100	–	–	–	–	–	–	–	–	–	–	–
c1ccc2c(c1)ccn1ccc3c4ccccc4nc-3c21	4.25	–	2.12	–	2.36	0.799	1.71	2.9	–	0.892	–	–	–	–	–	–	–	–	–
COc1ccc2nc3n(c2c1)C(=O)c1ccccc1-3	–	> 100	> 100	> 100	> 100	> 100	> 100	> 100	> 100	–	–	–	–	–	–	–	–	–	–
COc1ccc(C(=O)N/N=C/c2c(C)n(C)n(-c3ccccc3)c2=O)cc1	–	–	> 100	> 100	–	> 100	–	> 100	> 100	> 100	–	–	–	–	–	–	–	–	–
CCOC(=O)C(C)c1nc2ccc(C(F)(F)F)cc2[nH]c1=O (stereo unspecified)	> 100	> 100	> 100	> 100	> 100	> 100	> 100	> 100	–	> 100	–	–	–	–	–	–	–	–	–
CC(CN(C)C)C(=O)c1ccccc1 (stereo unspecified)	–	–	68	> 100	96.1	19.8	> 100	–	60.2	> 76.5	–	–	–	–	–	–	–	–	–
CCn1c2c(c3ccccc31)C(c1ccccc1)CC1C(=O)N(c3ccccc3)C(=O)C21 (stereo unspecified)	–	–	> 100	> 100	> 100	–	> 100	> 100	–	30.6	–	–	–	–	–	–	–	–	–
